Assay results from patent publication US20140343000A1 (priority 2011, published 2014).

test system: recombinant NL4-3 virus (Renilla luciferase in nef, Gag P373S; NLRluc) in MT-2 cells; assay: whole plant or invertebrate; type: cell-based, HIV; settings: Renilla, NL43, luciferase activity in cells infected for 4-5 days with NLRluc recombinants, serial dilutions of inhibitor; class symbols (key in Table 1); read-out: EC50
Procedure, shortened: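 Inhibitor potency against the reporter virus comes from reduced luciferase activity in infected MT-2 cells exposed to a dilution series of compound over 4-5 days.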

Q: With `C=C(C)[C@@H]1CC[C@]2(NCCN3CCN(S(=O)(=O)CC(C)C)CC3)CC[C@]3(C)[C@H](CC[C@@H]4[C@@]5(C)CC=C(c6ccc(C(=O)O)cc6)C(C)(C)[C@@H]5CC[C@]43C)[C@@H]12` [Example B35, 4-((1R,3aS,5aR,5bR,7aR,11aS,11bR,13aR,13bR)-3a-((2-(4-(isobutylsulfonyl)piperazin-1-yl)ethyl)amino)-5a,5b,8,8,11a-pentamethyl-1-(prop-1-en-2-yl)-2,3,3a,4,5,5a,5b,6,7,7a,8,11,11a,11b,12,13,13a,13b-octadecahydro-1H-cyclopenta[a]chrysen-9-yl)benzoic acid] as the molecule, how does the EC50 read?
A: Its EC50 is less than 100 nM.

Q: Which EC50 does the source give for `C=C(C)[C@@H]1CC[C@]2(NC(=O)N(CCO)CCN3CCS(=O)(=O)CC3)CC[C@]3(C)[C@H](CC[C@@H]4[C@@]5(C)CC=C(c6ccc(C(=O)O)cc6)C(C)(C)[C@@H]5CC[C@]43C)[C@@H]12` [Example 65, 4-((1R,3aS,5aR,5bR,7aR,11aS,11bR,13aR,13bR)-3a-(((2-(1,1-dioxido-4-thiomorpholinyl)ethyl)(2-hydroxyethyl)carbamoyl)amino)-1-isopropenyl-5a,5b,8,8,11a-pentamethyl-2,3,3a,4,5,5a,5b,6,7,7a,8,11,11a,11b,12,13,13a,13b-octadecahydro-1H-cyclopenta[a]chrysen-9-yl)benzoic acid] here?
A: Its EC50 is less than 100 nM.

Q: With `C=C(C)[C@@H]1CC[C@]2(NCCc3ccncc3)CC[C@]3(C)[C@H](CC[C@@H]4[C@@]5(C)CC=C(c6ccc(C(=O)O)cc6)C(C)(C)[C@@H]5CC[C@]43C)[C@@H]12` [Example 166, 4-((1R,3aS,5aR,5bR,7aR,11aS,11bR,13aR,13bR)-5a,5b,8,8,11a-pentamethyl-1-(prop-1-en-2-yl)-3a-((2-(pyridin-4-yl)ethyl)amino)-2,3,3a,4,5,5a,5b,6,7,7a,8,11,11a,11b,12,13,13a,13b-octadecahydro-1H-cyclopenta[a]chrysen-9-yl)benzoic acid] as the molecule, how does the EC50 read?
A: Its EC50 is less than 100 nM.

Q: For `C=C(C)[C@@H]1CC[C@]2(N)CC[C@]3(C)[C@H](CC[C@@H]4[C@@]5(C)CC=C(c6ccc(C(=O)O)cc6)C(C)(C)[C@@H]5CC[C@]43C)[C@@H]12` [Example 1, 4-((1R,3aS,5aR,5bR,7aR,11aS,11bR,13aR,13bR)-3a-amino-5a,5b,8,8,11a-pentamethyl-1-(prop-1-en-2-yl)-2,3,3a,4,5,5a,5b,6,7,7a,8,11,11a,11b,12,13,13a,13b-octadecahydro-1H-cyclopenta[a]chrysen-9-yl)benzoic acid], which EC50 is on record?
A: The EC50 was less than 100 nM.

Q: How did the EC50 turn out when `C=C(C)[C@@H]1CC[C@]2(NC(=O)CN3CCN(CC)CC3)CC[C@]3(C)[C@H](CC[C@@H]4[C@@]5(C)CC=C(c6ccc(C(=O)O)cc6)C(C)(C)[C@@H]5CC[C@]43C)[C@@H]12` [Example 85, 4-((1R,3aS,5aR,5bR,7aR,11aS,11bR,13aR,13bR)-3a-(2-(4-ethylpiperazin-1-yl)acetamido)-5a,5b,8,8,11a-pentamethyl-1-(prop-1-en-2-yl)-2,3,3a,4,5,5a,5b,6,7,7a,8,11,11a,11b,12,13,13a,13b-octadecahydro-1H-cyclopenta[a]chrysen-9-yl)benzoic acid] was run?
A: Its EC50 is less than 100 nM.

Q: For `CC(C)[C@@H]1CC[C@]2(N)CC[C@]3(C)[C@H](CC[C@@H]4[C@@]5(C)CC[C@H](c6ccc(C(=O)O)cc6)C(C)(C)[C@@H]5CC[C@]43C)[C@@H]12` [Example B3, 4-((1S,3aS,5aR,5bR,7aS,9S,11aS,11bR,13aR,13bR)-3a-amino-1-isopropyl-5a,5b,8,8,11a-pentamethylicosahydro-1H-cyclopenta[a]chrysen-9-yl)benzoic acid], which EC50 is on record?
A: Its EC50 is less than 100 nM.

Q: `C=C(C)[C@@H]1CC[C@]2(NCCN3CCN(C(=O)OC(C)(C)C)CC3)CC[C@]3(C)[C@H](CC[C@@H]4[C@@]5(C)CC=C(c6ccc(C(=O)O)cc6)C(C)(C)[C@@H]5CC[C@]43C)[C@@H]12` [Example B13, 4-((1R,3aS,5aR,5bR,7aR,11aS,11bR,13aR,13bR)-3a-((2-(4-(tert-butoxycarbonyl)piperazin-1-yl)ethyl)amino)-5a,5b,8,8,11a-pentamethyl-1-(prop-1-en-2-yl)-2,3,3a,4,5,5a,5b,6,7,7a,8,11,11a,11b,12,13,13a,13b-octadecahydro-1H-cyclopenta[a]chrysen-9-yl)benzoic acid] was tested. Which EC50 did it give?
A: The EC50 was less than 100 nM.

Q: With `C=C(C)[C@@H]1CC[C@]2(NC(=O)CCN3CCS(=O)(=O)CC3)CC[C@]3(C)[C@H](CC[C@@H]4[C@@]5(C)CC=C(c6ccc(C(=O)O)cc6)C(C)(C)[C@@H]5CC[C@]43C)[C@@H]12` [Example 81, benzoic acid, 4-[(1R,3aS,5aR,5bR,7aR,11aS,11bR,13aR,13bR)-3a-[[3-(1,1-dioxido-4-thiomorpholinyl)-1-oxopropyl]amino]-2,3,3a,4,5,5a,5b,6,7,7a,8,11,11a,11b,12,13,13a,13b-octadecahydro-5a,5b,8,8,11a-pentamethyl-1-(1-methylethenyl)-1H-cyclopenta[a]chrysen-9-yl]] as the molecule, how does the EC50 read?
A: Its EC50 is less than 100 nM.

Q: For `C=C(C)[C@@H]1CC[C@]2(NC(=O)COc3cccnc3)CC[C@]3(C)[C@H](CC[C@@H]4[C@@]5(C)CC=C(c6ccc(C(=O)O)cc6)C(C)(C)[C@@H]5CC[C@]43C)[C@@H]12` [Example 121, 4-((1R,3aS,5aR,5bR,7aR,11aS,11bR,13aR,13bR)-5a,5b,8,8,11a-pentamethyl-1-(prop-1-en-2-yl)-3a-(2-(pyridin-3-yloxy)acetamido)-2,3,3a,4,5,5a,5b,6,7,7a,8,11,11a,11b,12,13,13a,13b-octadecahydro-1H-cyclopenta[a]chrysen-9-yl)benzoic acid], which EC50 is on record?
A: The EC50 was less than 100 nM.

Q: Which EC50 does the source give for `C=C(C)[C@@H]1CC[C@]2(NCCN3CCN(S(=O)(=O)N(CC)CC)CC3)CC[C@]3(C)[C@H](CC[C@@H]4[C@@]5(C)CC=C(c6ccc(C(=O)O)cc6)C(C)(C)[C@@H]5CC[C@]43C)[C@@H]12` [Example B37, 4-((1R,3aS,5aR,5bR,7aR,11aS,11bR,13aR,13bR)-3a-((2-(4-(N,N-diethylsulfamoyl)piperazin-1-yl)ethyl)amino)-5a,5b,8,8,11a-pentamethyl-1-(prop-1-en-2-yl)-2,3,3a,4,5,5a,5b,6,7,7a,8,11,11a,11b,12,13,13a,13b-octadecahydro-1H-cyclopenta[a]chrysen-9-yl)benzoic acid] here?
A: Its EC50 is less than 100 nM.

Q: For `C=C(C)[C@@H]1CC[C@]2(NC(=O)OC)CC[C@]3(C)[C@H](CC[C@@H]4[C@@]5(C)CC=C(c6ccc(C(=O)O)cc6)C(C)(C)[C@@H]5CC[C@]43C)[C@@H]12` [Example 36, 4-((1R,3aS,5aR,5bR,7aR,11aS,11bR,13aR,13bR)-3a-(methoxycarbonylamino)-5a,5b,8,8,11a-pentamethyl-1-(prop-1-en-2-yl)-2,3,3a,4,5,5a,5b,6,7,7a,8,11,11a,11b,12,13,13a,13b-octadecahydro-1H-cyclopenta[a]chrysen-9-yl)benzoic acid], which EC50 is on record?
A: Its EC50 is less than 100 nM.

Q: For `C=C(C)[C@@H]1CC[C@]2(NCCN3CCN(C)CC3)CC[C@]3(C)[C@H](CC[C@@H]4[C@@]5(C)CC=C(c6ccc(C(=O)O)cc6)C(C)(C)[C@@H]5CC[C@]43C)[C@@H]12` [Example B28, 4-((1R,3aS,5aR,5bR,7aR,11aS,11bR,13aR,13bR)-5a,5b,8,8,11a-pentamethyl-3a-((2-(4-methylpiperazin-1-yl)ethyl)amino)-1-(prop-1-en-2-yl)-2,3,3a,4,5,5a,5b,6,7,7a,8,11,11a,11b,12,13,13a,13b-octadecahydro-1H-cyclopenta[a]chrysen-9-yl)benzoic acid], which EC50 is on record?
A: Its EC50 is less than 100 nM.

Q: `C=C(C)[C@@H]1CC[C@]2(NC(=O)CN3CCCC3=O)CC[C@]3(C)[C@H](CC[C@@H]4[C@@]5(C)CC=C(c6ccc(C(=O)O)cc6)C(C)(C)[C@@H]5CC[C@]43C)[C@@H]12` [Example 95, 4-((1R,3aS,5aR,5bR,7aR,11aS,11bR,13aR,13bR)-5a,5b,8,8,11a-pentamethyl-3a-(2-(2-oxopyrrolidin-1-yl)acetamido)-1-(prop-1-en-2-yl)-2,3,3a,4,5,5a,5b,6,7,7a,8,11,11a,11b,12,13,13a,13b-octadecahydro-1H-cyclopenta[a]chrysen-9-yl)benzoic acid] was tested. Which EC50 did it give?
A: The EC50 was less than 100 nM.

Q: With `C=C(C)[C@@H]1CC[C@]2(NC(=O)N(C)CCn3ccnc3)CC[C@]3(C)[C@H](CC[C@@H]4[C@@]5(C)CC=C(c6ccc(C(=O)O)cc6)C(C)(C)[C@@H]5CC[C@]43C)[C@@H]12` [Example 25, 4-((1R,3aS,5aR,5bR,7aR,11aS,11bR,13aR,13bR)-3a-(3-(2-(1H-imidazol-1-yl)ethyl)-3-methylureido)-5a,5b,8,8,11a-pentamethyl-1-(prop-1-en-2-yl)-2,3,3a,4,5,5a,5b,6,7,7a,8,11,11a,11b,12,13,13a,13b-octadecahydro-1H-cyclopenta[a]chrysen-9-yl)benzoic acid] as the molecule, how does the EC50 read?
A: The EC50 was less than 100 nM.

same assay, conditions: Renilla, NL43, luciferase activity in cells infected for 4-5 days with NLRluc recombinants, serial dilutions of inhibitor; numeric values; read-out: EC50

Q: `CC(C)NC(=O)CN[C@]12CC[C@@H](C(C)C)[C@@H]1[C@H]1CC[C@@H]3[C@@]4(C)CC[C@H](c5ccc(C(=O)O)cc5)C(C)(C)[C@@H]4CC[C@@]3(C)[C@]1(C)CC2` [Example B9] was tested. Which EC50 did it give?
A: The EC50 was 10 nM.

Q: With `C=C(C)[C@@H]1CC[C@]2(NCC3CCCNC3)CC[C@]3(C)[C@H](CC[C@@H]4[C@@]5(C)CC=C(c6ccc(C(=O)O)cc6)C(C)(C)[C@@H]5CC[C@]43C)[C@@H]12` (stereo partly drawn) [Example 175, 4-((1R,3aS,5aR,5bR,7aR,11aS,11bR,13aR,13bR)-5a,5b,8,8,11a-pentamethyl-3a-(piperidin-3-ylmethylamino)-1-(prop-1-en-2-yl)-2,3,3a,4,5,5a,5b,6,7,7a,8,11,11a,11b,12,13,13a,13b-octadecahydro-1H-cyclopenta[a]chrysen-9-yl)benzoic acid] as the molecule, how does the EC50 read?
A: The EC50 was 10 nM.
